Here are results for 11 molecules from ChEMBL document CHEMBL1201862, “PubChem BioAssay data set” (2004).

Experiment in all cases: growth of human tumour cells (NCI), 48 h
Experiment [1] relates to COLO 205.
In experiment [2] the test system is SF-539.
The test system of experiment [3] is SNB-19.
In experiment [4] the test system is MOLT-4.
Experiment [5] has as its system HOP-62.
The subject of experiment [6] is LOX IMVI.
The subject of experiment [7] is RXF 393.
For experiment [8], the system named is T47D.
Experiment [9] relates to SN12C.
Experiment [10] has as its system SK-OV-3.
For experiment [11], the system named is CAKI-1.
The subject of experiment [12] is ACHN.
Experiment [13] deals with K562.
The subject of experiment [14] is HCT-15.
The test system of experiment [15] is UACC-257.
Experiment [16] concerns OVCAR-3.
Experiment [17] relates to SF-268.
For experiment [18], the system named is EKVX.
The subject of experiment [19] is HOP-92.
The test system of experiment [20] is HCC 2998.

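These data come from cells grown in 96-well plates and exposed to compound for 48 hours at five concentrations. At the GI50, growth is halved.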 Active and inactive are the calls of the source. Cut-off read from the data, not from the text of the source: active = GI50 up to about 1.1 µM and inactive = higher.

With `COC(=O)c1c(C)c2c(c(C)c1C(=O)OC)-c1c(C)ccc3ccc(C)c-2c13`, the GI50 in experiment [1] is 34.4 µM (inactive); in [2] it was 51.5 µM (inactive); in experiment [3], > 87.5 µM (inactive); in [4] it was 14.4 µM (inactive); in [5], > 100 µM (inactive); in experiment [6], 12.1 µM (inactive). Also, the GI50 in experiment [7] was 15.6 µM (inactive); in [8] it was 18.4 µM (inactive); in experiment [9], > 93.8 µM (inactive); in [10], > 74.8 µM (inactive); in [11] it was > 100 µM (inactive); in [12], > 100 µM (inactive). Also, the GI50 is 3.03 µM (inactive) in experiment [13]; 13 µM in experiment [14]; > 54.5 µM (inactive) in experiment [15]; > 85.9 µM (inactive) in [16]; 54 µM (inactive) in experiment [17]; 66.4 µM (inactive) in experiment [18].

In the case of `COc1cc([C@@H]2c3cc4c(cc3[C@H](OC3OC5COC(C(C)C)OC5C(O)C3O)C3COC(=O)[C@@H]32)OCO4)cc(OC)c1O` (some centres undefined), the GI50 was 6.82 µM (inactive) in experiment [1]; 2.72 µM (inactive) in experiment [2]; 14.6 µM (inactive) in experiment [3]; 3.17 µM (inactive) in [4]; 11.7 µM (inactive) in [5]; 12.2 µM (inactive) in experiment [6]. The GI50 was 4.76 µM (inactive) in experiment [7]; 26.6 µM (inactive) in experiment [8]; 17.3 µM (inactive) in experiment [10]; 4.27 µM (inactive) in experiment [11]; 3.51 µM (inactive) in experiment [12]; 8.61 µM (inactive) in [13]. Also, the GI50 in experiment [19] was 11.9 µM (inactive); in experiment [14], 10.3 µM; in [15], 8.87 µM (inactive); in experiment [16], 11.8 µM (inactive); in experiment [17], 9.86 µM (inactive); in [18], 17.6 µM (inactive).

Regarding `O=C1CSC2=NC3=C(CSC/C3=C\c3ccc(Cl)cc3)C(c3ccc(Cl)cc3)N12` (centres undefined), the GI50 in [1] was 33.1 µM (inactive); in [3], 37.2 µM (inactive); in [4], 9.08 µM (inactive); in experiment [6] it was 12.3 µM (inactive); in [8] it was 32.5 µM (inactive); in [9] it was 12.4 µM (inactive). Moreover, the GI50 in experiment [10] is 52.7 µM (inactive); in experiment [11] it was 37.2 µM (inactive); in [20], 25.6 µM (inactive); in experiment [12], 16.9 µM (inactive); in [13], 21.1 µM (inactive); in experiment [19] it was 10.3 µM (inactive). The GI50 in experiment [14] was 15.8 µM; in [15], 28.2 µM (inactive); in experiment [16], 15.5 µM (inactive); in experiment [17] it was 41.2 µM (inactive); in experiment [18] it was 27.4 µM (inactive).

For `CCC(C)C1=C(OC(C)=O)[N+]2([O-])Oc3ccc(-c4c(OC(C)=O)c(OC(C)=O)c(-c5ccc(OC(C)=O)cc5)c(OC(C)=O)c4OC(C)=O)cc3OC2(C(C)CC)C(=O)N1OC(C)=O` (centres undefined), the GI50 is 18.8 µM (inactive) in experiment [1]; 42.3 µM (inactive) in experiment [2]; 30.1 µM (inactive) in [3]; 11.1 µM (inactive) in [4]; 17.2 µM (inactive) in [6]; 29.6 µM (inactive) in experiment [7]. Also, the GI50 in [8] was 10.9 µM (inactive); in experiment [9], 34.3 µM (inactive); in experiment [10], 43 µM (inactive); in experiment [11] it was 34 µM (inactive); in experiment [12] it was 19.6 µM (inactive); in experiment [13], 12.2 µM (inactive). For the same molecule, the GI50 in experiment [14] is 22.5 µM; in experiment [15] it was 30.5 µM (inactive); in experiment [16], 11.4 µM (inactive); in experiment [17] it was 12.4 µM (inactive); in [18] it was 16.1 µM (inactive).

Take `NS(=O)(=O)c1ccc(-c2ccc([As](=O)(O)O)cc2)cc1`: the GI50 in experiment [1] is > 100 µM (inactive); in experiment [2], > 100 µM (inactive); in experiment [3] it was > 100 µM (inactive); in experiment [4], > 100 µM (inactive); in experiment [5], 78.3 µM (inactive); in [6] it was > 100 µM (inactive). For the same molecule, the GI50 in experiment [7], in experiment [8], in experiment [9], in experiment [10], in [11] and in [12] was > 100 µM (inactive) each time. The GI50 was > 100 µM (inactive) in experiment [13]; > 100 µM (inactive) in experiment [19]; over 100 µM in [14]; 32.6 µM (inactive) in [15]; > 100 µM (inactive) in experiment [16]; > 100 µM (inactive) in experiment [17]. Further, the GI50 in experiment [18] was > 100 µM (inactive).

For `C/C=C(/COC(C)=O)C(=O)OC1C=C(C=O)C(C)(C)C=C1C` (centres undefined), the GI50 in experiment [1] was > 100 µM (inactive); in experiment [2], > 100 µM (inactive); in experiment [3], > 100 µM (inactive); in experiment [4], > 10 µM (inactive); in experiment [6], > 100 µM (inactive); in experiment [8], > 100 µM (inactive). The GI50 in experiment [9] is > 100 µM (inactive); in [10], > 100 µM (inactive); in [11], > 100 µM (inactive); in [20] it was > 100 µM (inactive); in experiment [12], > 100 µM (inactive); in experiment [13], 43.5 µM (inactive). For the same molecule, the GI50 in experiment [19] is > 100 µM (inactive); in experiment [14], over 100 µM; in [15] it was > 100 µM (inactive); in [17] it was > 100 µM (inactive); in [18] it was > 100 µM (inactive).

Turning to `CCC1(CC)C(=O)CC[C@@]2(C)C1=CC[C@H]1[C@@H]3CC[C@H](O)[C@@]3(C)CC[C@@H]12`, the GI50 in experiment [1] is 28 µM (inactive); in experiment [2], 29.2 µM (inactive); in experiment [3], 24 µM (inactive); in experiment [4], 25.6 µM (inactive); in experiment [5], 19.1 µM (inactive); in [6], 19.4 µM (inactive). The GI50 in experiment [7] is 36.6 µM (inactive); in experiment [8], 28.9 µM (inactive); in experiment [9], 16.7 µM (inactive); in experiment [10], 46.1 µM (inactive); in experiment [11] it was 83.8 µM (inactive); in experiment [12], 40.4 µM (inactive). Besides, the GI50 is 16.4 µM (inactive) in experiment [13]; 37.5 µM (inactive) in experiment [19]; 46.9 µM in experiment [14]; 26.7 µM (inactive) in experiment [15]; 19.7 µM (inactive) in [16]; 32.5 µM (inactive) in [17]. Further, the GI50 in experiment [18] was 28.5 µM (inactive).

For the molecule `FC(F)=C(c1ccc(-c2ccc(Cl)cc2)cc1)C(F)(F)F`, the GI50 in experiment [1] was 17.9 µM (inactive); in experiment [2] it was 20.7 µM (inactive); in [3], 19.3 µM (inactive); in experiment [4], 32.3 µM (inactive); in [7], 20.6 µM (inactive); in experiment [8] it was 28.2 µM (inactive). Also, the GI50 was 20.3 µM (inactive) in [9]; 21 µM (inactive) in experiment [10]; 19.8 µM (inactive) in experiment [11]; 17.3 µM (inactive) in experiment [12]; 26.2 µM (inactive) in experiment [13]; 15.1 µM (inactive) in experiment [19]. For the same molecule, the GI50 was 20.4 µM in experiment [14], 20 µM (inactive) in [15], 23.9 µM (inactive) in [17] and 19.7 µM (inactive) in experiment [18].

As to `O=C1c2ccccc2-c2ccc(/N=N/c3c(O)ccc4ccccc34)cc21`, the GI50 in [1] was > 100 µM (inactive); in [3], > 100 µM (inactive); in experiment [4] it was 41.8 µM (inactive); in [5], > 100 µM (inactive); in experiment [6] it was > 100 µM (inactive); in experiment [7], > 100 µM (inactive). In addition, the GI50 in experiment [8], in experiment [9], in experiment [10], in experiment [11], in [13] and in experiment [19] was > 100 µM (inactive) throughout. The GI50 is over 100 µM in experiment [14]; > 100 µM (inactive) in experiment [15]; > 100 µM (inactive) in experiment [16]; > 100 µM (inactive) in [17]; > 100 µM (inactive) in experiment [18].

In the case of `CCC(C)C(=O)OC1CC2(C)C(c3ccoc3)OC(=O)CC23OC2(C)OC34C(OC(=O)C(C)C)C3(O)C(OC(=O)C5(C)OC5C)C5(C)CC3(O)C(C)(C5CC(=O)OC)C14O2` (centres undefined), the GI50 in experiment [1] was 20 µM (inactive); in experiment [2] it was 15 µM (inactive); in experiment [3], 32.6 µM (inactive); in [4] it was 20.7 µM (inactive); in [6], 52.7 µM (inactive); in experiment [8], 23.1 µM (inactive). For the same molecule, the GI50 in experiment [9] was > 100 µM (inactive); in [10] it was > 100 µM (inactive); in experiment [11] it was 57.3 µM (inactive); in experiment [20], 66.8 µM (inactive); in experiment [12] it was 37 µM (inactive); in experiment [13] it was 27.8 µM (inactive). Besides, the GI50 was 36.8 µM (inactive) in experiment [19]; 40.6 µM in experiment [14]; 79.4 µM (inactive) in experiment [15]; 47.2 µM (inactive) in experiment [17]; 24.3 µM (inactive) in [18].

As to `COC(=O)C(=O)C(C(=O)OC)C(=O)C(=O)Nc1c(C)cccc1C` (centres undefined), the GI50 in experiment [1], in experiment [2], in [3], in experiment [4], in experiment [5] and in [6] was > 100 µM (inactive) throughout. In addition, the GI50 in experiment [7], in experiment [9], in [10], in experiment [11], in [20] and in experiment [12] was > 100 µM (inactive) throughout. Moreover, the GI50 in experiment [13] was > 100 µM (inactive); in experiment [19], 41.6 µM (inactive); in [14], over 100 µM; in [15], > 100 µM (inactive); in [16] it was > 100 µM (inactive); in experiment [17] it was > 100 µM (inactive). For the same molecule, in experiment [18], the GI50 was > 100 µM (inactive).
